One assay concerns the target Protease (Human immunodeficiency virus 1, UniProt Q9YQ12). Briefly: Inhibition of HIV1 protease.
The next assay addresses T1, Renin (Homo sapiens, UniProt P00797).
T1 sequence (P00797 whole entry): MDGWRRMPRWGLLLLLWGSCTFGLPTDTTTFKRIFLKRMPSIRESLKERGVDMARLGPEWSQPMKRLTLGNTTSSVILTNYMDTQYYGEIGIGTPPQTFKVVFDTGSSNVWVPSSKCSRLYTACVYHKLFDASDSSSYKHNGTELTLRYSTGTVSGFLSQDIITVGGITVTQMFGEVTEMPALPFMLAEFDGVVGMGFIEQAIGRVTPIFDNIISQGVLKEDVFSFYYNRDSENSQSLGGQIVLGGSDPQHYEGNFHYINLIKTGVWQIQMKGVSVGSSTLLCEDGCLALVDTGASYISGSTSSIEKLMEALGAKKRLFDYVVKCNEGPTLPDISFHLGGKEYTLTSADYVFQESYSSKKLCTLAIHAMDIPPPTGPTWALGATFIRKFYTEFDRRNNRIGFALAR
Briefly: Inhibition of renin by fluorimetric assay.

Assay [1] can be described thus: Inhibition of trypsin by fluorimetric assay.
Assay [2] is described as follows: Inhibition of HCV NS3/4A protease by fluorimetric assay. On the set-up: species or system Hepacivirus hominis.

The structures appear in SMILES notation.

Protease, sequence (Q9YQ12 whole entry): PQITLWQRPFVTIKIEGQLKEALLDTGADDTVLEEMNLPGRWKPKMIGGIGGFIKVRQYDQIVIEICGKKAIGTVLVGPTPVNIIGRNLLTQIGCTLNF

As usually defined, the IC50 is the concentration that inhibits the measured activity by half. `C[C@@H]1[C@H]2[C@H]3CC[C@@H]4[C@@]5(C)C=C(O)C(=O)C(C)(C)[C@@H]5CC[C@@]4(C)[C@]3(C)CC[C@@]2(C(=O)O)CC[C@H]1C`: the IC50 against Protease came out at 25.4 µM.
In the case of `C=C(C)[C@@H]1CC[C@@]2(C)[C@@H]1[C@@H]1CC[C@@H]3[C@@](C)(CC(=O)O)[C@H](C(C)(C)C(=O)O)CC[C@@]3(C)[C@]1(C)C[C@@H]2O`, the IC50 against Renin is over 2050 µM; against Protease, 10.9 µM; in assay [1], over 2050 µM; in assay [2] it was over 205 µM.
Take `C=C(C)[C@@H]1CC[C@]2(C(=O)O)CC[C@]3(C)[C@@H](CC[C@@H]4[C@@](C)(CC(=O)O)[C@H](C(C)(C)C(=O)O)CC[C@]43C)[C@H]12`: the IC50 was over 1990 µM against Renin, 15.7 µM at Protease, 856 µM in assay [1] and over 199 µM in assay [2].
Consider `CC1(C)C(=O)CC[C@]2(C)[C@H]3C(=O)C=C4[C@H]5C[C@@](C)(C(=O)O)CC[C@]5(C)CC[C@@]4(C)[C@]3(C)CC[C@@H]12`, for which, on Protease, the concentration for half-maximal inhibition (IC50) is 23.6 µM.
In turn, `CC1(C)CC[C@]2(C(=O)O)CC[C@]3(C)[C@H](CC[C@@H]4[C@@]5(C)C=C(O)C(=O)C(C)(C)[C@@H]5CC[C@]43C)[C@H]2C1` yielded an IC50 on Protease of 19.2 µM.
`CC1(C)CC[C@]2(C(=O)O)CC[C@]3(C)C(=CC[C@@H]4[C@@](C)(CC(=O)O)[C@H](C(C)(C)C(=O)O)CC[C@]43C)[C@H]2C1`: the IC50 at Renin was over 1990 µM; against Protease, 3.9 µM; in assay [1] it was over 1990 µM; in assay [2], over 199 µM.
The compound `CC1(C)C(=O)C(O)=C[C@]2(C)[C@H]3C(=O)C[C@@H]4[C@H]5C[C@@](C)(C(=O)O)CC[C@]5(C)CC[C@@]4(C)[C@]3(C)CC[C@@H]12` registered an IC50 against Protease of 15.8 µM.
As to `C=C(C)[C@@H]1CC[C@]2(C(=O)O)CC[C@]3(C)[C@@H](CC[C@@H]4[C@@]5(C)C=C(O)C(=O)C(C)(C)[C@@H]5CC[C@]43C)[C@H]12`, the IC50 on Protease is 18.8 µM.
As to `CC(C)(C(=O)O)[C@@H]1CC[C@]2(C)[C@H](C(=O)C=C3[C@H]4C[C@@](C)(C(=O)O)CC[C@]4(C)CC[C@]32C)[C@@]1(C)CC(=O)O`, the IC50 at Renin is over 1930 µM; against Protease, 5.7 µM; in assay [1], over 1940 µM; in assay [2], over 194 µM.
As to `CC1(C)CC[C@]2(C(=O)O)CC[C@]3(C)C(=CC[C@@H]4[C@@]5(C)CCC(=O)C(C)(C)[C@@H]5CC[C@]43C)[C@H]2C1`, on Protease, inhibition was half-maximal at 27.4 µM (IC50).
With `CC1(C)CC[C@]2(CO)CC[C@]3(C)C(=CC[C@@H]4[C@@](C)(CC(=O)O)[C@H](C(C)(C)C(=O)O)CC[C@]43C)[C@H]2C1`, at Protease, the IC50 came out at 30.4 µM.
With `CC(C)[C@@H](NC(=O)[C@]12CCC(C)(C)C[C@@H]1C1=CC[C@@H]3[C@@]4(C)CC[C@H](O)C(C)(C)[C@@H]4CC[C@@]3(C)[C@]1(C)CC2)C(=O)O`, at Protease, the IC50 is 47.3 µM.
As for `C[C@H]1[C@H](C)CC[C@]2(C(=O)O)CC[C@]3(C)C(=CC[C@@H]4[C@@](C)(CC(=O)O)[C@H](C(C)(C)C(=O)O)CC[C@]43C)[C@H]12`, the IC50 against Renin is over 1990 µM; at Protease it was 17.6 µM; in assay [1], over 1990 µM; in assay [2], over 199 µM.
The compound `C=C(C)[C@@H]1CC[C@]2(C)CC[C@]3(C)[C@@H](CC[C@@H]4[C@@]5(C)CCC(=O)C(C)(C)[C@@H]5CC[C@]43C)[C@H]12` gave an IC50 at Protease of over 236 µM.
`CC(C)[C@H](NC(=O)[C@]12CCC(C)(C)C[C@@H]1C1=CC[C@@H]3[C@@]4(C)CCC(=O)C(C)(C)[C@@H]4CC[C@@]3(C)[C@]1(C)CC2)C(=O)O` had an IC50 at Protease of 14.6 µM.
With `CC(C)[C@@H](NC(=O)[C@]12CCC(C)(C)C[C@@H]1C1=CC[C@@H]3[C@@](C)(CC(=O)O)[C@H](C(C)(C)C(=O)O)CC[C@@]3(C)[C@]1(C)CC2)C(=O)O`, the IC50 against Renin was over 1660 µM; against Protease, 88.1 µM; in assay [1], over 1660 µM; in assay [2] it was over 166 µM.
As to `COC(=O)[C@@H](NC(=O)[C@]12CCC(C)(C)C[C@@H]1C1=CC[C@@H]3[C@@]4(C)CC[C@H](O)C(C)(C)[C@@H]4CC[C@@]3(C)[C@]1(C)CC2)C(C)C`, at Protease, it took 24.6 µM to reach half-maximal inhibition (IC50).
On the same count and under the same terms, next, `COC(=O)[C@@H](NC(=O)[C@]12CCC(C)(C)C[C@@H]1C1=CC[C@@H]3[C@@]4(C)CC[C@H](OC(C)=O)C(C)(C)[C@@H]4CC[C@@]3(C)[C@]1(C)CC2)C(C)C`: 21.3 µM.
`COC(=O)[C@H](NC(=O)[C@]12CCC(C)(C)C[C@@H]1C1=CC[C@@H]3[C@@]4(C)CCC(=O)C(C)(C)[C@@H]4CC[C@@]3(C)[C@]1(C)CC2)C(C)C` had an IC50 against Protease of 41.4 µM.
The same measure, in the same setting: next, `COC(=O)[C@@H](NC(=O)[C@]12CCC(C)(C)C[C@@H]1C1=CC[C@@H]3[C@@]4(C)CCC(=O)C(C)(C)[C@@H]4CC[C@@]3(C)[C@]1(C)CC2)C(C)C`: 37 µM.
Take `CC(C)[C@@H](NC(=O)[C@]12CCC(C)(C)C[C@@H]1C1=CC[C@@H]3[C@@]4(C)CCC(=O)C(C)(C)[C@@H]4CC[C@@]3(C)[C@]1(C)CC2)C(=O)O`: on Protease, the IC50 was 45.2 µM.
On Protease, `CC(C)[C@H](NC(=O)[C@]12CCC(C)(C)C[C@@H]1C1=CC[C@@H]3[C@@]4(C)CC[C@H](O)C(C)(C)[C@@H]4CC[C@@]3(C)[C@]1(C)CC2)C(=O)O` displayed an IC50 of 10.6 µM.
Same read-out and setting: with `COC(=O)[C@H](NC(=O)[C@]12CCC(C)(C)C[C@@H]1C1=CC[C@@H]3[C@@]4(C)CC[C@H](O)C(C)(C)[C@@H]4CC[C@@]3(C)[C@]1(C)CC2)C(C)C` the figure was 32.3 µM; with `CC(C)[C@@H](NC(=O)[C@]12CCC(C)(C)C[C@@H]1[C@H]1CC[C@@H]3[C@@]4(C)C=C(O)C(=O)C(C)(C)[C@@H]4CC[C@@]3(C)[C@]1(C)CC2)C(=O)O`, 49.7 µM; with `CC(C)[C@H](NC(=O)[C@]12CCC(C)(C)C[C@@H]1[C@H]1CC[C@@H]3[C@@]4(C)C=C(O)C(=O)C(C)(C)[C@@H]4CC[C@@]3(C)[C@]1(C)CC2)C(=O)O`, 40.5 µM.
The compound `C=C(C)[C@@H]1CC[C@]2(C)CC[C@]3(C)[C@@H](CC[C@@H]4[C@@]5(C)C=C(O)C(=O)C(C)(C)[C@@H]5CC[C@]43C)[C@H]12` showed an IC50 at Protease of 24.6 µM.
For `CC1(C)CC[C@]2(C(=O)O)CC[C@]3(C)C(=CC[C@@H]4[C@@]5(C)CC(=O)C(C)(C)[C@@H]5CC[C@]43C)[C@H]2C1`, inhibition on Protease was half-maximal at 28.6 µM (IC50).
The same measure, in the same setting: with `C=C(C)[C@@H]1CC[C@]2(C=O)CC[C@]3(C)[C@@H](CC[C@@H]4[C@@]5(C)CCC(=O)C(C)(C)[C@@H]5CC[C@]43C)[C@H]12` the figure was 31.9 µM.
Consider `C=C(C)[C@@H]1CC[C@]2(C)CC[C@]3(C)[C@@H](CC[C@@H]4[C@@](C)(CC(=O)O)[C@H](C(C)(C)C(=O)O)CC[C@]43C)[C@H]12`, for which the IC50 is over 2120 µM against Renin, 25.4 µM on Protease, over 2120 µM in assay [1] and 80.3 µM in assay [2].
On Protease, `CC(=O)O[C@H]1CC[C@]2(C)[C@H]3CC=C4[C@@H]5CC(C)(C)CC[C@]5(C(=O)O)CC[C@@]4(C)[C@]3(C)CC[C@H]2C1(C)C` [ACETYL OLEANOLIC ACID] yielded an IC50 of over 201 µM.
At Protease, `C[C@H]1[C@H](C)CC[C@]2(C(=O)O)CC[C@]3(C)C(=CC[C@@H]4[C@@]5(C)CCC(=O)C(C)(C)[C@@H]5CC[C@]43C)[C@H]12` [URSONIC ACID] showed an IC50 of 37.5 µM.
